≈ marks a conversion by molar mass, not a printed value.
How the values were obtained:
[1] = test system: ST258/KPC-35 mutant IMI 3.2; assay: MIC, broth microdilution; type: cell-based; settings: Klebsiella pneumoniae
KPC-2 = target: T1, KPC-2 (Klebsiella pneumoniae, UniProt Q9F663); assay: Specific β-lactamase activity against imipenem, crude extract; type: biochemical; settings: hydrolysis of imipenem by KPC-2 crude extract, 297 nm
T1 construct: made in house; host or cells: E. coli HB4 (porin-deficient), plasmid pUCP24
Procedure: (§1) Cultures were centrifuged at 3,500 × g, 15 min at 4°C, resuspended in 10 mL of phosphate-buffered saline (PBS; pH ~7.4) and sonicated with Ultraschall Prozessor UP 200S Hielscher (Teltow, Germany).

KPC-3 D179N = target: T2, KPC-3 D179N (Klebsiella pneumoniae, UniProt Q9F663, D178N/H272Y); assay: as above; type: biochemical; settings: hydrolysis of imipenem by KPC-3 D179N crude extract, 297 nm
T2 construct: made in house; host or cells: E. coli HB4 (porin-deficient), plasmid pUCP24
Procedure: as §1

KPC-2 L169A = target: T3, KPC-2 L169A (Klebsiella pneumoniae, UniProt Q9F663, L168A); assay: as above; type: biochemical; settings: hydrolysis of imipenem by KPC-2 L169A crude extract, 297 nm
T3 construct: made in house; host or cells: E. coli HB4 (porin-deficient), plasmid pUCP24
Procedure: as §1

KPC-2 L169T = target: T4, KPC-2 L169T (Klebsiella pneumoniae, UniProt Q9F663, L168T); assay: as above; type: biochemical; settings: hydrolysis of imipenem by KPC-2 L169T crude extract, 297 nm
T4 construct: made in house; host or cells: E. coli HB4 (porin-deficient), plasmid pUCP24
Procedure: as §1

KPC-3 = target: T5, KPC-3 (Klebsiella pneumoniae, UniProt Q9F663, H272Y); assay: as above; type: biochemical; settings: hydrolysis of imipenem by KPC-3 crude extract, 297 nm
T5 construct: made in house; host or cells: E. coli HB4 (porin-deficient), plasmid pUCP24
Procedure: as §1

[2] = test system: K. pneumoniae ST512/KPC-31; assay: In vitro resistance dynamics (stepwise, 7 days); type: cell-based, Klebsiella pneumoniae; settings: stepwise resistance development, MH broth, up to 64× MIC
[3] = test system: ST512/KPC-31 mutant IMI 2.2; assay: MIC, broth microdilution; type: cell-based; settings: Klebsiella pneumoniae
[4] = test system: ST512/KPC-31 mutant IMI 3.1; assay: MIC, broth microdilution; type: cell-based; settings: Klebsiella pneumoniae
[5] = test system: ST258/KPC-35 mutant IMI 1.2; assay: MIC, broth microdilution; type: cell-based; settings: Klebsiella pneumoniae
[6] = test system: ST512/KPC-31 mutant IMI 1.2; assay: MIC, broth microdilution; type: cell-based; settings: Klebsiella pneumoniae
[7] = test system: ST258/KPC-35 mutant IMI 2.2; assay: MIC, broth microdilution; type: cell-based; settings: Klebsiella pneumoniae
[8] = test system: ST512/KPC-31 mutant IMI 3.2; assay: MIC, broth microdilution; type: cell-based; settings: Klebsiella pneumoniae
[9] = test system: ST258/KPC-35 mutant IMI 2.1; assay: MIC, broth microdilution; type: cell-based; settings: Klebsiella pneumoniae
E. coli HB4 KPC-2 = assay: MIC of recombinant strains; type: cell-based; settings: Escherichia coli, HB4KPC2; E. coli HB4 expressing KPC-2 in pUCP24
Procedure: (§2) 14.0 (www.eucast.org/clinical_breakpoints).
(§3) Recombinant strains were selected in 10 mg/L of gentamicin-LB agar plates. The β-lactam MICs were determined for the transformants according to the above-described methodology.

[10] = test system: E. coli HB4 KPC-31 (KPC-3 D179Y); assay: MIC of recombinant strains; type: cell-based; settings: Escherichia coli; E. coli HB4 expressing KPC-31 (KPC-3 D179Y) in pUCP24
Procedure: as §2, §3

E. coli HB4 KPC-2 L169T = assay: MIC of recombinant strains; type: cell-based; settings: Escherichia coli, HB4KPC2L169T; E. coli HB4 expressing KPC-2 L169T in pUCP24
Procedure: as §2, §3

E. coli HB4 KPC-3 D179N = assay: MIC of recombinant strains; type: cell-based; settings: Escherichia coli, HB4KPC3D179N; E. coli HB4 expressing KPC-3 D179N in pUCP24
Procedure: as §2, §3

[11] = test system: E. coli HB4 KPC-35 (KPC-2 L169P); assay: MIC of recombinant strains; type: cell-based; settings: Escherichia coli; E. coli HB4 expressing KPC-35 (KPC-2 L169P) in pUCP24
Procedure: as §2, §3

E. coli HB4 = assay: MIC of recombinant strains; type: cell-based; settings: Escherichia coli; E. coli HB4 (OmpC- and OmpF-deficient), no KPC
Procedure: as §2, §3

E. coli HB4 KPC-3 = assay: MIC of recombinant strains; type: cell-based; settings: Escherichia coli, HB4KPC3; E. coli HB4 expressing KPC-3 in pUCP24
Procedure: as §2, §3

E. coli HB4 KPC-2 L169A = assay: MIC of recombinant strains; type: cell-based; settings: Escherichia coli, HB4KPC2L169A; E. coli HB4 expressing KPC-2 L169A in pUCP24
Procedure: as §2, §3

[12] = test system: ST258/KPC-35 mutant IMI 1.1; assay: MIC, broth microdilution; type: cell-based; settings: Klebsiella pneumoniae
[13] = test system: ST512/KPC-31 mutant IMI 1.1; assay: MIC, broth microdilution; type: cell-based; settings: Klebsiella pneumoniae
[14] = test system: ST258/KPC-35 mutant IMI 3.1; assay: MIC, broth microdilution; type: cell-based; settings: Klebsiella pneumoniae
[15] = test system: K. pneumoniae ST258/KPC-35 (KPC-2 L169P) parental clinical isolate; assay: MIC, broth microdilution; type: cell-based; settings: Klebsiella pneumoniae
[16] = test system: K. pneumoniae ST258/KPC-35; assay: In vitro resistance dynamics (stepwise, 7 days); type: cell-based, Klebsiella pneumoniae; settings: stepwise resistance development, MH broth, up to 64× MIC
[17] = test system: K. pneumoniae ST512/KPC-31 (KPC-3 D179Y) parental clinical isolate; assay: MIC, broth microdilution; type: cell-based; settings: Klebsiella pneumoniae
[18] = test system: K. pneumoniae ST512/KPC-31 (KPC-3 D179Y); assay: Single-step mutant frequencies and mutant prevention concentrations; type: cell-based, Klebsiella pneumoniae; settings: for Imipenem mutant frequency: MH agar, 48 h
Procedure: (§4) The plates were incubated for 48 h at 37°C before the frequency of resistance emergence was calculated as the ratio of the number of colony forming units (CFUs) grown on the antibiotic-containing plate and the number of CFUs on antibiotic-free plates. Mutant prevention concentrations were defined as the lowest concentration of antibiotic combination for which there were zero colonies on all agar plates ([23]). All determinations were conducted in triplicate.

[19] = test system: K. pneumoniae ST258/KPC-35 (KPC-2 L169P); assay: as above; type: cell-based, Klebsiella pneumoniae; settings: for Imipenem mutant frequency: MH agar, 48 h
Procedure: as §4

[20] = test system: ST512/KPC-31 mutant IMI 2.1; assay: MIC, broth microdilution; type: cell-based; settings: Klebsiella pneumoniae
[21] = fold higher than the MIC of the parental strain
[22] = relebactam fixed at 4 mg/L in the combination

SMILES: C[C@@H](O)[C@H]1C(=O)N2C(C(=O)O)=C(SCCN=CN)C[C@H]12 [IMI, imipenem]
- MIC [1]: 128 µg/mL (≈ 428 µM)
- Specific activity (KPC-2): 0.55 µmol/min/mg
- Specific activity (KPC-3 D179N): 0.02 µmol/min/mg
- Specific activity (KPC-2 L169A): 0.1 µmol/min/mg
- Specific activity (KPC-2 L169T): 0.13 µmol/min/mg
- Specific activity (KPC-3): 2.5 µmol/min/mg
- Day on which 64× MIC values were reached [2]: 5 days
- MIC [3]: > 256 µg/mL
- MIC [4]: 32 µg/mL (≈ 107 µM)
- MIC [5]: 256 µg/mL (≈ 855 µM)
- MIC [6]: > 256 µg/mL
- MIC [7]: > 256 µg/mL
- MIC [8]: 32 µg/mL (≈ 107 µM)
- MIC [9]: > 256 µg/mL
- MIC (E. coli HB4 KPC-2): 32 µg/mL
- MIC [10]: 0.25 µg/mL
- MIC (E. coli HB4 KPC-2 L169T): 16 µg/mL
- MIC (E. coli HB4 KPC-3 D179N): 0.25 µg/mL
- MIC [11]: 0.25 µg/mL
- MIC (E. coli HB4): 0.125 µg/mL
- MIC (E. coli HB4 KPC-3): 16 µg/mL
- MIC (E. coli HB4 KPC-2 L169A): 8 µg/mL
- MIC [12]: 256 µg/mL (≈ 855 µM)
- MIC [13]: > 256 µg/mL
- MIC [14]: 128 µg/mL (≈ 428 µM)
- MIC [15]: 0.5 µg/mL (≈ 1.67 µM)
- Day on which 64× MIC values were reached [16]: 3 days
- MIC [17]: 0.125 µg/mL (≈ 0.418 µM)
- Mutant prevention concentration relative to baseline MIC [18, 21]: 64 fold
- Imipenem mutant frequency ([18]; imipenem concentration 2 mg/L): 1.29×10^−8
- Imipenem mutant frequency ([18]; imipenem concentration 4 mg/L): 6.10×10^−10
- Imipenem mutant frequency ([18]; imipenem concentration 8 mg/L): ≤ 2.44×10^−11
- Mutant prevention concentration [18, 22]: 8 mg/L
- Mutant prevention concentration relative to baseline MIC [19, 21]: 16 fold
- Imipenem mutant frequency ([19]; imipenem concentration 2 mg/L): 8.22×10^−9
- Imipenem mutant frequency ([19]; imipenem concentration 4 mg/L): 5.08×10^−10
- Imipenem mutant frequency ([19]; imipenem concentration 8 mg/L): ≤ 1.69×10^−11
- Mutant prevention concentration [19, 22]: 8 mg/L
- MIC [20]: > 256 µg/mL

From paper PMC11619344 (Antimicrobial Agents and Chemotherapy, 2024)
